The assay deals with T1, human recombinant HPK1 (Homo sapiens, UniProt Q92918).
T1 construct: purchased BPS Bioscience
Put plainly: Inhibitory activity against human recombinant HPK1 (TR-FRET). The conditions noted are these: ULight-p70S6K peptide, ATP at Km, room temperature, 1 hour, 0.32 to 1000 nM compound. The format is biochemical. Put shortly:
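Recombinant human HPK1 with ULight-p70S6K peptide and ATP at Km, 1 h at room temperature in HEPES pH 7.4 buffer with Mg2+, Mn2+, EGTA, DTT; compounds 0.32–1000 nM final. EDTA stop, Eu-anti-phosphopeptide TR-FRET read (665 nm); IC50 from % inhibition versus DMSO, binned A–D at 10, 50, 100 nM.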
In general terms: Time-resolved FRET reads energy transfer from a long-lived donor to a nearby acceptor.

From US20260347338A1, “PYRIMIDINE/PYRIDINE DERIVATIVES OR SALTS THEREOF AND PHARMACEUTICAL COMPOSITIONS COMPRISING THE SAME” (YUHAN CORPORATION, priority 2023, published 2026) come the findings set out here.

The structures appear in SMILES notation. Counter-ions that a name gives are not always drawn.

T1 sequence (Q92918 whole entry): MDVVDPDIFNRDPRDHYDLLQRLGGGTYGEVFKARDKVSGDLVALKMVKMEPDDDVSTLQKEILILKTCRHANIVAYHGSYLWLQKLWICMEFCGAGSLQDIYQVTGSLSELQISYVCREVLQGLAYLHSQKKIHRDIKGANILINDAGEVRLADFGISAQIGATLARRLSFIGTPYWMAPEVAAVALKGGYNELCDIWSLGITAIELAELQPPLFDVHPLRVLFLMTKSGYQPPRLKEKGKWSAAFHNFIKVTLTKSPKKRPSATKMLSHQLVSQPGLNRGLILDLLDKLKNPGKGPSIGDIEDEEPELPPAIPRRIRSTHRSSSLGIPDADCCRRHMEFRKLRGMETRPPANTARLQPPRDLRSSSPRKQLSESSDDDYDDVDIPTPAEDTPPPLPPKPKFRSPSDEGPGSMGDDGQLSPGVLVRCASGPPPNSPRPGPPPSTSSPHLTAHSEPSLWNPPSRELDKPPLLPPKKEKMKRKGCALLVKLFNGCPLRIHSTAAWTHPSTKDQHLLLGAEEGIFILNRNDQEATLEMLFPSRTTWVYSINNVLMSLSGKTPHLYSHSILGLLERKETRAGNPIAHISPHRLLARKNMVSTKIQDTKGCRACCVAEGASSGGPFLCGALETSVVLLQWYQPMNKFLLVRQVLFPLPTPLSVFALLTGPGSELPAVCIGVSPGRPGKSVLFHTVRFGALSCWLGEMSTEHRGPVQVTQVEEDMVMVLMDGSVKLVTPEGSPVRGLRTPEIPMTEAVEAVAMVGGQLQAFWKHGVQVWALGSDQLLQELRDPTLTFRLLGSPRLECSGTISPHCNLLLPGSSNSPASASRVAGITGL

With `COc1cc(F)cc(F)c1-c1nc(Nc2cc(N3CC[C@@H](C)[C@H](N)C3)c(-c3cnn(C(F)F)c3)cn2)ccc1C#N` [Example 338, 6-((4-((3S,4R)-3-amino-4-methylpiperidin-1-yl)-5-(1-(difluoromethyl)-1H-pyrazol-4-yl)pyridin-2-yl)amino)-2-(2,4-difluoro-6-methoxyphenyl)nicotinonitrile hydrochloride], the IC50 (as a rule, the concentration needed to halve the response being measured) was not above 10 nM.
Regarding `COc1cccc(F)c1-c1nccc(Nc2cc(N3CCC[C@H](O)C3)c(C(=O)C3CC3)cn2)n1` [Example 5, (S)-cyclopropyl(6-((2-(2-fluoro-6-methoxyphenyl)pyrimidin-4-yl)amino)-4-(3-hydroxypiperidin-1-yl)pyridin-3-yl)methanone], the IC50 was 10 to 50 nM.
On to `O[C@H]1CCCN(c2cc(Nc3ccnc(-c4ccn5ncnc5c4)n3)ncc2-c2cnn(C3CCOCC3)c2)C1` [Example 26, (S)-1-(2-((2-([1,2,4]triazolo[1,5-a]pyridin-7-yl)pyrimidin-4-yl)amino)-5-(1-(tetrahydro-2H-pyran-4-yl)-1H-pyrazol-4-yl)pyridin-4-yl)piperidin-3-ol], for which the half-maximal inhibitory concentration (IC50) fell in the range of 50 to 100 nM.
As to `COc1cccc(F)c1-c1nccc(Nc2cc(N3CCC[C@H](N)C3)c(-c3ccc4c(c3)NC(=O)C(C)O4)cn2)n1` (stereo partly drawn) [Example 270, 6-(4-((S)-3-aminopiperidin-1-yl)-6-((2-(2-fluoro-6-methoxyphenyl)pyrimidin-4-yl)amino)pyridin-3-yl)-2-methyl-2H-benzo[b][1,4]oxazin-3(4H)-one hydrochloride], the half-inhibitory concentration (IC50) is not above 10 nM.
Regarding `COc1cccc(F)c1-c1nccc(Nc2cc(N3CCC[C@H](N)C3)c(C#Cc3cnn(C(F)F)c3)cn2)n1` [Example 164, (S)-N-(4-(3-aminopiperidin-1-yl)-5-((1-(difluoromethyl)-1H-pyrazol-4-yl)ethynyl)pyridin-2-yl)-2-(2-fluoro-6-methoxyphenyl)pyrimidin-4-amine hydrochloride], the concentration for half-maximal inhibition (IC50) was not above 10 nM.
With `COc1cccc(F)c1-c1nccc(Nc2cc(N3CCC[C@H](N)C3)c(-c3cnn(C(F)F)c3)cn2)n1` [Example 73, (S)-N-(4-(3-aminopiperidin-1-yl)-5-(1-(difluoromethyl)-1H-pyrazol-4-yl)pyridin-2-yl)-2-(2-fluoro-6-methoxyphenyl)pyrimidin-4-amine hydrochloride], the half-inhibitory concentration (IC50) was not above 10 nM.
Take `COc1cccc(F)c1-c1nccc(Nc2cc(N3CCC[C@H](N)C3)c(-c3cc(C)c4c(c3)CCC(=O)N4)cn2)n1` [Example 262, (S)-6-(4-(3-aminopiperidin-1-yl)-6-((2-(2-fluoro-6-methoxyphenyl)pyrimidin-4-yl)amino)pyridin-3-yl)-8-methyl-3,4-dihydroquinolin-2(1H)-one hydrochloride]: the IC50 is not above 10 nM.
On to `COc1cccc(F)c1-c1nc(Nc2cc(N3CCC[C@H](N)C3)c(-c3cnn(C(F)F)c3)cn2)ccc1N` [Example 151, N^2-(4-((S)-3-aminopiperidin-1-yl)-5-(1-(difluoromethyl)-1H-pyrazol-4-yl)pyridin-2-yl)-6-(2-fluoro-6-methoxyphenyl)pyridin-2,5-diamine hydrochloride], for which the IC50 was not above 10 nM.
For the compound `COc1cccc(F)c1-c1nc(Nc2cc(N3CCC[C@H](N)C3)c(-c3cnn(C4CCOCC4)c3)cn2)ccc1C(N)=O` [Example 129, 6-((4-((S)-3-aminopiperidin-1-yl)-5-(1-(tetrahydro-2H-pyran-4-yl)-1H-pyrazol-4-yl)pyridin-2-yl)amino)-2-(2-fluoro-6-methoxyphenyl)nicotinamide hydrochloride], the concentration for half-maximal inhibition (IC50) was not above 10 nM.
As for `COc1cc(CN(C)C)cc(F)c1-c1nccc(Nc2cc(N3CCC[C@H](N)C3)c(-c3cnn(CC(F)(F)F)c3)cn2)n1` [Example 105, (S)-N-(4-(3-aminopiperidin-1-yl)-5-(1-(2,2,2-trifluoroethyl)-1H-pyrazol-4-yl)pyridin-2-yl)-2-(4-((dimethylamino)methyl)-2-fluoro-6-methoxyphenyl)pyrimidin-4-amine hydrochloride], the IC50 is not above 10 nM.
With `COc1cccc(F)c1-c1nccc(Nc2cc(N3CC[C@@H](NC(C)=O)C3)c(-c3cnn(C4CCOCC4)c3)cn2)n1` [Example 126, (R)-N-(1-(2-((2-(2-fluoro-6-methoxyphenyl)pyrimidin-4-yl)amino)-5-(1-(tetrahydro-2H-pyran-4-yl)-1H-pyrazol-4-yl)pyridin-4-yl)pyrrolidin-3-yl)acetamide] the figure was 10 to 50 nM; with `COc1cc(C(=O)N2CCC(F)(F)C2)cc(F)c1-c1nccc(Nc2cc(N3CCC[C@H](O)C3)c(-c3cnn(C(F)F)c3)cn2)n1` [Example 234, (S)-(4-(4-((5-(1-(difluoromethyl)-1H-pyrazol-4-yl)-4-(3-hydroxypiperidin-1-yl)pyridin-2-yl)amino)pyrimidin-2-yl)-3-fluoro-5-methoxyphenyl)(3,3-difluoropyrrolidin-1-yl)methanone], not above 10 nM.
As for `COc1cccc(F)c1-c1nc(Nc2cc(N3CCC[C@H](N)C3)c(-c3cnn(CC(F)(F)F)c3)cn2)ccc1[N+](=O)[O-]` [Example 153, 4-((S)-3-aminopiperidin-1-yl)-N-(6-(2-fluoro-6-methoxyphenyl)-5-nitropyridin-2-yl)-5-(1-(2,2,2-trifluoroethyl)-1H-pyrazol-4-yl)pyridin-2-amine hydrochloride], the IC50 was not above 10 nM.
As to `COc1cccc(F)c1-c1nccc(Nc2cc(N3CCC[C@@H](C(F)F)C3)c(-c3cnn(C(F)F)c3)cn2)n1` [Example 273, (R)-N-(5-(1-(difluoromethyl)-1H-pyrazol-4-yl)-4-(3-(difluoromethyl)piperidin-1-yl)pyridin-2-yl)-2-(2-fluoro-6-methoxyphenyl)pyrimidin-4-amine], the concentration for half-maximal inhibition (IC50) is not above 10 nM.
Take `COc1cc(F)cc(F)c1-c1nccc(Nc2cc(N3C[C@@H](N)C[C@@H](F)C3)c(-c3cnn(C(C)C)c3)cn2)n1` [Example 335, N-(4-((3S,5R)-3-amino-5-fluoropiperidin-1-yl)-5-(1-isopropyl-1H-pyrazol-4-yl)pyridin-2-yl)-2-(2,4-difluoro-6-methoxyphenyl)pyrimidin-4-amine]: the half-inhibitory concentration (IC50) is not above 10 nM.
With `COc1cccc(F)c1-c1nc(Nc2cc(N3CCC[C@H](N)C3)c(-c3cnn(CC(F)(F)F)c3)cn2)ccc1N` [Example 170, N^2-(4-((S)-3-aminopiperidin-1-yl)-5-(1-(2,2,2-trifluoroethyl)-1H-pyrazol-4-yl)pyridin-2-yl)-6-(2-fluoro-6-methoxyphenyl)pyridin-2,5-diamine hydrochloride], the IC50 was not above 10 nM.
As to `COc1cc(F)cc(F)c1-c1nccc(Nc2cc(N3C[C@@H](N)C[C@H](F)C3)c(-c3cnn(CC(F)(F)F)c3)cn2)n1` [Example 333, N-(4-((3S,5S)-3-amino-5-fluoropiperidin-1-yl)-5-(1-(2,2,2-trifluoroethyl)-1H-pyrazol-4-yl)pyridin-2-yl)-2-(2,4-difluoro-6-methoxyphenyl)pyrimidin-4-amine hydrochloride], the IC50 was not above 10 nM.
With `COc1cccc(F)c1-c1nccc(Nc2cc(N3CCC[C@H](N)C3)c(-c3ccc(F)c(N(C)C)c3)cn2)n1` [Example 296, (S)-N-(4-(3-aminopiperidin-1-yl)-5-(3-(dimethylamino)-4-fluorophenyl)pyridin-2-yl)-2-(2-fluoro-6-methoxyphenyl)pyrimidin-4-amine hydrochloride] the figure was not above 10 nM.
With `COc1cccc(F)c1-c1nccc(Nc2cc(N3CCC[C@H](O)C3)c(-c3ccc(C(=O)N4CCN(C)CC4)nc3)cn2)n1` [Example 36, (S)-(6′-((2-(2-fluoro-6-methoxyphenyl)pyrimidin-4-yl)amino)-4′-(3-hydroxypiperidin-1-yl)-[3,3′-bipyridin]-6-yl)(4-methylpiperazin-1-yl)methanone], the concentration for half-maximal inhibition (IC50) is not above 10 nM.
With `COc1cccc(F)c1-c1nccc(Nc2cc(N3CCC[C@H](N)C3)c(-c3cnn(C4CCN(C)CC4)c3)cn2)n1` [Example 74, (S)-N-(4-(3-aminopiperidin-1-yl)-5-(1-(1-methylpiperidin-4-yl)-1H-pyrazol-4-yl)pyridin-2-yl)-2-(2-fluoro-6-methoxyphenyl)pyrimidin-4-amine hydrochloride] the figure was not above 10 nM; with `COc1cccc(F)c1-c1nccc(Nc2cc(N3CCC[C@H](N)C3)c(-c3cnc4c(c3)OCC(=O)N4C)cn2)n1` [Example 274, (S)-7-(4-(3-aminopiperidin-1-yl)-6-((2-(2-fluoro-6-methoxyphenyl)pyrimidin-4-yl)amino)pyridin-3-yl)-4-methyl-2H-pyrido[3,2-b][1,4]oxazin-3(4H)-one hydrochloride], not above 10 nM; with `COc1cccc(F)c1-c1nccc(Nc2cc(N3CC[C@H](F)[C@H](N)C3)c(-c3cnn(C(F)F)c3)cn2)n1` [Example 207, N-(4-((3R,4S)-3-amino-4-fluoropiperidin-1-yl)-5-(1-(difluoromethyl)-1H-pyrazol-4-yl)pyridin-2-yl)-2-(2-fluoro-6-methoxyphenyl)pyrimidin-4-amine hydrochloride], not above 10 nM.
With `COc1cccc(F)c1-c1nccc(Nc2cc(N3CCC[C@H](O)C3)c(-c3ccc(CN4CC[C@H](F)C4)nc3)cn2)n1` [Example 39, (S)-1-(6-((2-(2-fluoro-6-methoxyphenyl)pyrimidin-4-yl)amino)-6′-(((S)-3-fluoropyrrolidin-1-yl)methyl)-[3,3′-bipyridin]-4-yl)piperidin-3-ol] the figure was not above 10 nM; with `COc1cccc(F)c1-c1nccc(Nc2cc(N3CCC(CCN(C)C)CC3)c(-c3ccc(N4CCOCC4)nc3)cn2)n1` [Example 149, 4-(4-(2-(dimethylamino)ethyl)piperidin-1-yl)-N-(2-(2-fluoro-6-methoxyphenyl)pyrimidin-4-yl)-6′-morpholino-[3,3′-bipyridin]-6-amine], not above 10 nM.
